Experimental data as given in ChEMBL document CHEMBL5329202, “New aryl-/heteroarylpiperazine derivatives of 1,7-dimethyl-8,9-diphenyl-4-azatricyclo[5.2.1.02,6]dec-8-ene-3,5,10-trione: Synthesis and preliminary studies of biological activities” (Bioorg Med Chem, 2023).
Calls of active or inactive are those of the source. The rule behind the calls is not given here.

Tests used:
[1] = system: PC-3; assay: Antiproliferative activity against human PC-3 cells assessed as decrease in IL-6 level at IC50 measured after 72 hrs by ELISA assay relative to control; format: functional; design: scale not given: the % may be the effect or the level left
[2] = system: SW480; assay: Antiproliferative activity against human SW480 cells assessed as decrease in IL-6 level at IC50 measured after 72 hrs by ELISA assay relative to control; format: functional; design: scale not given: the % may be the effect or the level left
[3] = system: SW-620; assay: Antiproliferative activity against human SW620 cells assessed as reduction in cell number at IC50 measured after 72 hrs by trypan blue dye based assay relative to control; format: functional; design: scale not given: the % may be the effect or the level left
[4] = system: SW-620; assay: Antiproliferative activity against human SW620 cells assessed as reduction in cell viability at IC50 measured after 72 hrs by trypan blue dye based assay relative to control; format: functional
[5] = system: SW-620; assay: Induction of apoptosis in human SW620 cells assessed as early apoptotic cells at IC50 incubated for 72 hrs by Annexin V-FITC/PI staining based flow cytometric analysis (reference value: 5.2 %); format: functional
[6] = target: 5-hydroxytryptamine receptor 2A (Rattus norvegicus) (UniProt P14842); assay: Displacement of [3H]ketanserin from Sprague-Dawley rat 5-HT2A receptor measured after 60 mins by competitive binding assay
[7] = system: HMEC-1; assay: Induction of apoptosis in human HMEC-1 cells assessed as increase in caspase-3/7 activity at IC50 incubated for 24 hrs by Glo assay relative to control; format: functional
[8] = system: HaCaT; assay: Induction of apoptosis in human HaCaT cells assessed as late apoptotic cells at IC50 incubated for 72 hrs by Annexin V-FITC/PI staining based flow cytometric analysis relative to control; format: functional

Chain of 5-hydroxytryptamine receptor 2A (Rattus norvegicus) (P14842 whole entry): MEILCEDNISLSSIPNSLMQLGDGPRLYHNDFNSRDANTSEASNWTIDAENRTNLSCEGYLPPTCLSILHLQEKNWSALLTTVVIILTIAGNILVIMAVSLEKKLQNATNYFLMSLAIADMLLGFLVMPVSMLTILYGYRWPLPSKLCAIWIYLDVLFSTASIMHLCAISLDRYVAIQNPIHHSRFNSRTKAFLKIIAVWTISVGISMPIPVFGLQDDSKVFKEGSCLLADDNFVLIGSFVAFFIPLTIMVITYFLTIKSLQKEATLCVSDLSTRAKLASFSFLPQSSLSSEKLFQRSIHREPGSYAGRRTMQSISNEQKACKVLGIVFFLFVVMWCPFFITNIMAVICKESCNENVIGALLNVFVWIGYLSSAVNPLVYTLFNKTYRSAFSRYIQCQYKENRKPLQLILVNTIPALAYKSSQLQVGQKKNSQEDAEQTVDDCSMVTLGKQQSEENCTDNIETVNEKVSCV

| SMILES | Activity [3] [%] | Activity [4] [%] | Activity [5] [%] | further results |
| --- | --- | --- | --- | --- |
| CC12C(=O)C(C)(C(c3ccccc3)=C1c1ccccc1)C1C(=O)N(CCCCN3CCN(c4cccc(Cl)c4)CC3)C(=O)C12 (stereo unspecified) | – | – | – | Activity [1]: 51% |
| CC12C(=O)C(C)(C(c3ccccc3)=C1c1ccccc1)C1C(=O)N(CCCCN3CCN(c4ccccc4Cl)CC3)C(=O)C12 (stereo unspecified) | 27 | 23 | 6.1 | Activity [2]: 48% |
| COc1ccccc1N1CCN(CCCCN2C(=O)C3C(C2=O)C2(C)C(=O)C3(C)C(c3ccccc3)=C2c2ccccc2)CC1 (stereo unspecified) | 27 | 27 | 7.6 | – |
| CC12C(=O)C(C)(C(c3ccccc3)=C1c1ccccc1)C1C(=O)N(CCCCN3CCN(c4ncccn4)CC3)C(=O)C12 (stereo unspecified) | – | – | – | Activity [6]: inactive |
| CC12C(=O)C(C)(C(c3ccccc3)=C1c1ccccc1)C1C(=O)N(CCCCN3CCN(c4ccccc4F)CC3)C(=O)C12 (stereo unspecified) | – | – | – | Activity [7]: 13%; Activity [8]: 12.3% |
